Experimental data as given in patent publication US8895509B2, “MIR-200 family induces mesenchymal-to-epithelial transition (MET) in ovarian cancer cells” (Georgia Tech Research Corporation, priority 2010, dated 2014).

Legend:
Type in all cases: cell-based, human
HEY cells [1] = assay: microarray profiling (Affymetrix HG-U133 Plus 2.0) of miR-429 transfected HEY cells; settings: for Fold-change: miR-429 transfected HEY cells
Method: 6×10^4 cells per well were seeded in 24-well plates. After 24 h, cells were transfected with 30 nM of miR-429 and miR-320 miRNA oligonucleotides (Ambion, Austin, Tex.) using Lipofectamine 2000 reagent (Invitrogen, Carlsbad, Calif.). The Ambion Pre-miRNA Precursor Negative Control was used as a control. Three days after transfection, cells were split and transfected again. This process was repeated every 3 days until 21 days when cells were assayed for response.
Microarray analyses were performed using the Affymetrix system (HG-U133 Plus 2.0; Santa Clara, Calif.) as previously described [Bowen et al., BMC Med Genomics 2009, 2:71]. Briefly, the expression data were analyzed using MAS 5.0 Statistical Algorithm encoded in the Affymetrix Expression Console application. The expression values were normalized across samples by Z-score calculation using Spotfire Decision Site software. […] Gene enrichment analyses were carried out using GeneGO (http://www.genego.com/) gene ontology software.

HEY cells [2] = assay: serum-induced migration, trans-well chamber assay; settings: miR-429 transfected HEY cells vs negative control
Method: (§1) For the migration and invasion assays, 2.5×10^3 overnight serum starved cells in serum-free media were added to the top chambers of trans-well plates (8 μm pore size; BD, Franklin Lakes, N.J.) and media containing 10% fetal calf serum (FCS) were added to the bottom chambers. After 8-12 h, the non-migrating (top) cells were removed and the invading (bottom) cells were counted. All assays were done in triplicate. For the wound-healing assay, 2.5×10^5 cells were seeded into six-well plates. After 24 h, a wound was incised, detached cells removed and fresh media added. Photos were taken after 8 hrs to monitor the invasion of cells into the wounded area.
(§2) To further explore the effects of ectopic expression of miR-429 in HEY cells, we looked for changes in cellular functions frequently associated with EMT. For example, ovarian and other types of cancer cells undergoing EMT typically display increased motility/migration and invasiveness. […] Relative invasiveness was also measured by monitoring serum-induced invasion through a matrigel layer.

HEY cells [3] = assay: serum-induced invasion through a matrigel layer; settings: miR-429 transfected HEY cells vs negative control
Method: as §1, §2

[4] = miR-429 transfected cells vs controls, p<0.015, fold change 1.5

## miR-429: miR-200 family member; mature miRNA UAAUACUGUCUGGUAAAACCGU (SEQ ID NO: 6); miRNA oligonucleotide (Ambion) transfected at 30 nM (listed as RNA, chemistry not given here; listed as Homo sapiens) [miR-200 family member; miRNA oligonucleotide (Ambion) transfected at 30 nM]
HEY cells [1]; gene LOC158381
  Fold change (miR-429 transfected HEY cells relative to negative controls): −7.31
HEY cells [1]; gene LOC284561
  Fold change (miR-429 transfected HEY cells relative to negative controls): −38.32
HEY cells [1]; gene LOC286178
  Fold change (miR-429 transfected HEY cells relative to negative controls): −10.56
HEY cells [1]; gene LOC339290
  Fold-change: −1.87
HEY cells [1]; gene LOC401497
  Fold change (miR-429 transfected HEY cells relative to negative controls): −9.19
HEY cells [1]; gene LOC439949
  Fold change (miR-429 transfected HEY cells relative to negative controls): −2.48
HEY cells [1]; gene LRP4
  Fold change (miR-429 transfected HEY cells relative to negative controls): −2.66
HEY cells [1]; gene MARS
  Fold change (miR-429 transfected HEY cells relative to negative controls): −6.59
HEY cells [1]; gene MARS2
  Fold change (miR-429 transfected HEY cells relative to negative controls): −2.50
HEY cells [1]; gene MERTK
  Fold change (miR-429 transfected HEY cells relative to negative controls): −3.03
HEY cells [1]; gene MGC16121
  Fold change (miR-429 transfected HEY cells relative to negative controls): −3.46
HEY cells [1]; gene MRAP
  Fold change (miR-429 transfected HEY cells relative to negative controls): −3.05
HEY cells [1]; gene NAV3
  Fold change (miR-429 transfected HEY cells relative to negative controls): −4.35
HEY cells [1]; gene NOC2L
  Fold change (miR-429 transfected HEY cells relative to negative controls): −26.91
HEY cells [1]; gene OSTM1
  Fold change (miR-429 transfected HEY cells relative to negative controls): −4.35
HEY cells [1]; gene PAPPA2
  Fold change (miR-429 transfected HEY cells relative to negative controls): −23.75
HEY cells [1]; gene PCK2
  Fold change (miR-429 transfected HEY cells relative to negative controls): −4.44
HEY cells [1]; gene PCOTH
  Fold change (miR-429 transfected HEY cells relative to negative controls): −13.93
HEY cells [1]; gene PHGDH
  Fold change (miR-429 transfected HEY cells relative to negative controls): −3.78
HEY cells [1]; gene PITX2
  Fold change (miR-429 transfected HEY cells relative to negative controls): −2.45
HEY cells [1]; gene PRTG
  Fold-change: −1.61
HEY cells [1]; gene PSAT1
  Fold change (miR-429 transfected HEY cells relative to negative controls): −6.92
HEY cells [1]; gene PTPN13
  Fold change (miR-429 transfected HEY cells relative to negative controls): −3.10
HEY cells [1]; gene PYGO1
  Fold change (miR-429 transfected HEY cells relative to negative controls): −3.61
HEY cells [1]; gene RDH10
  Fold-change: −2.08
HEY cells [1]; gene RGMB
  Fold change (miR-429 transfected HEY cells relative to negative controls): −2.89
HEY cells [1]; gene RPL22L1
  Fold change (miR-429 transfected HEY cells relative to negative controls): −2.45
HEY cells [1]; gene SENP5
  Fold-change: −1.80
HEY cells [1]; gene SESN2
  Fold change (miR-429 transfected HEY cells relative to negative controls): −3.61
HEY cells [1]; gene SGSH
  Fold change (miR-429 transfected HEY cells relative to negative controls): −2.57
HEY cells [1]; gene SH3PXD2B
  Fold change (miR-429 transfected HEY cells relative to negative controls): −5.13
HEY cells [1]; gene SHANK2
  Fold change (miR-429 transfected HEY cells relative to negative controls): −10.85
HEY cells [1]; gene SHMT2
  Fold-change: −2.04
HEY cells [1]; gene SLC1A4
  Fold change (miR-429 transfected HEY cells relative to negative controls): −4.32
HEY cells [1]; gene SLC1A5
  Fold change (miR-429 transfected HEY cells relative to negative controls): −3.01
HEY cells [1]; gene SLC7A11
  Fold change (miR-429 transfected HEY cells relative to negative controls): −5.46
HEY cells [1]; gene SLC24A3
  Fold change (miR-429 transfected HEY cells relative to negative controls): −10.20
HEY cells [1]; gene SLC27A4
  Fold change (miR-429 transfected HEY cells relative to negative controls): −6.23
HEY cells [1]; gene SNORA68
  Fold change (miR-429 transfected HEY cells relative to negative controls): −14.52
HEY cells [1]; gene SRCAP
  Fold change (miR-429 transfected HEY cells relative to negative controls): −2.43
HEY cells [1]; gene STARD13
  Fold-change: −1.78
HEY cells [1]; gene SYF2
  Fold change (miR-429 transfected HEY cells relative to negative controls): −12.64
HEY cells [1]; gene SYT11
  Fold change (miR-429 transfected HEY cells relative to negative controls): −2.66
HEY cells [1]; gene TIGD1
  Fold-change: −2.38
HEY cells [1]; gene TLR1
  Fold change (miR-429 transfected HEY cells relative to negative controls): −15.24
HEY cells [1]; gene TMEM156
  Fold change (miR-429 transfected HEY cells relative to negative controls): −2.79
HEY cells [1]; gene TMEM201
  Fold change (miR-429 transfected HEY cells relative to negative controls): −5.58
HEY cells [1]; gene TSGA14
  Fold-change: −2.33
HEY cells [1]; gene TSPAN13 (epithelial marker)
  change in expression by microarray: up-regulated
HEY cells [1]; gene WDR43
  Fold-change: −1.88
HEY cells [1]; gene YARS
  Fold change (miR-429 transfected HEY cells relative to negative controls): −2.45
HEY cells [1]; gene ZBTB24
  Fold-change: −1.87
HEY cells [1]; gene ZEB2
  change in expression by microarray: did not display a significant change in expression
HEY cells [1]; gene ZNF30
  Fold change (miR-429 transfected HEY cells relative to negative controls): −2.62
HEY cells [1]; gene ZNF697
  Fold-change: −1.91
HEY cells [1]; gene hCG_1654703
  Fold change (miR-429 transfected HEY cells relative to negative controls): −7.46
HEY cells [1]; [4]
  number of genes significantly down regulated: 296 genes
  number of genes significantly up regulated: 373 genes
HEY cells [1]; miR-429 transfected cells vs negative control
  number of genes displaying significant changes in expression: 669 genes
HEY cells [2]
  migration through pores, slower than negative controls: > 2 fold
HEY cells [3]
  decrease in invasion relative to controls: > 5 fold
